Values joined by “and” are separate entries in the source; they are usually repeats but may differ in a detail not shown here. Equal values may be shown once.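 Results reflect a 48-hour exposure of cells in 96-well plates to compound at five concentrations. The concentration for 50% growth inhibition is given as GI50. TGI is the concentration that stops growth completely.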
What was measured:
Experiment in all cases: NCI-60 cell line screen, 48 h
786-0 renal = test system: 786-0 renal
A498 renal = test system: A498 renal
A549 NSCLC = test system: A549 NSCLC
ACHN renal = test system: ACHN renal
BT-549 breast = test system: BT-549 breast
CCRF-CEM leukemia = test system: CCRF-CEM leukemia
COLO 205 colon = test system: COLO 205 colon
DU-145 prostate = test system: DU-145 prostate
EKVX NSCLC = test system: EKVX NSCLC
HCC-2998 colon = test system: HCC-2998 colon
HCT-116 colon = test system: HCT-116 colon
HCT-15 colon = test system: HCT-15 colon
HL-60(TB) leukemia = test system: HL-60(TB) leukemia
HOP-62 NSCLC = test system: HOP-62 NSCLC
HOP-92 NSCLC = test system: HOP-92 NSCLC
HS 578T breast = test system: HS 578T breast
HT29 colon = test system: HT29 colon
IGROV1 ovarian = test system: IGROV1 ovarian
K-562 leukemia = test system: K-562 leukemia
KM12 colon = test system: KM12 colon
LOX IMVI melanoma = test system: LOX IMVI melanoma
M14 melanoma = test system: M14 melanoma
MALME-3M melanoma = test system: MALME-3M melanoma
MCF7 breast = test system: MCF7 breast
MDA-MB-231 breast = test system: MDA-MB-231 breast
MDA-MB-435 = test system: MDA-MB-435
MOLT-4 leukemia = test system: MOLT-4 leukemia
NCI-H226 lung = test system: NCI-H226 lung
NCI-H23 lung = test system: NCI-H23 lung
NCI-H460 lung = test system: NCI-H460 lung
NCI-H522 lung = test system: NCI-H522 lung
NCI/ADR-RES ovarian = test system: NCI/ADR-RES ovarian
OVCAR-3 ovarian = test system: OVCAR-3 ovarian
OVCAR-4 ovarian = test system: OVCAR-4 ovarian
OVCAR-5 ovarian = test system: OVCAR-5 ovarian
OVCAR-8 ovarian = test system: OVCAR-8 ovarian
PC-3 prostate = test system: PC-3 prostate
RPMI-8226 leukemia = test system: RPMI-8226 leukemia
RXF 393 renal = test system: RXF 393 renal
SF-268 CNS = test system: SF-268 CNS
SF-295 CNS = test system: SF-295 CNS
SF-539 CNS = test system: SF-539 CNS
SK-MEL-2 melanoma = test system: SK-MEL-2 melanoma
SK-MEL-28 melanoma = test system: SK-MEL-28 melanoma
SK-MEL-5 melanoma = test system: SK-MEL-5 melanoma
SK-OV-3 ovarian = test system: SK-OV-3 ovarian
SN12C renal = test system: SN12C renal
SNB-19 CNS = test system: SNB-19 CNS
SR leukemia = test system: SR leukemia
SW-620 colon = test system: SW-620 colon
T-47D breast = test system: T-47D breast
TK-10 renal = test system: TK-10 renal
U251 CNS = test system: U251 CNS
UACC-257 melanoma = test system: UACC-257 melanoma
UACC-62 melanoma = test system: UACC-62 melanoma
UO-31 renal = test system: UO-31 renal

## COC(=O)N[C@H]1C=C[C@@H]2/C=C(C)/C=C/[C@@H](C)[C@H]([C@H](C)[C@H](O)[C@@H](C)NC(C)=O)OC(=O)/C=C/C=C(C)\C=C\[C@]2(C)C1
786-0 renal
  GI50: 16.5 nM and 7.46 nM
  TGI: > 45300 nM
A498 renal
  GI50: 13.2 nM and 13.5 nM
A549 NSCLC
  GI50: 31.2 nM and 4.53 nM
  TGI: > 45300 nM
ACHN renal
  GI50: 4.53 nM
  TGI: > 45300 nM
BT-549 breast
  GI50: 18.7 nM and 12.6 nM
  TGI: 42100 nM
CCRF-CEM leukemia
  GI50: 2580 nM
  TGI: > 45300 nM
COLO 205 colon
  GI50: 14 nM and 11.3 nM
  TGI: 7070 nM
DU-145 prostate
  TGI: > 45300 nM
EKVX NSCLC
  TGI: > 45300 nM
HCC-2998 colon
  TGI: > 45300 nM
HCT-116 colon
  GI50: 3.71 nM and 4.53 nM
  TGI: > 45300 nM
HCT-15 colon
  GI50: 8.93 nM and 7.36 nM
  TGI: > 45300 nM
HL-60(TB) leukemia
  GI50: 7.22 nM and 5.48 nM
  TGI: 19600 nM
HOP-62 NSCLC
  GI50: 70.5 nM and 27.8 nM
  TGI: > 45300 nM
HOP-92 NSCLC
  GI50: 2.11 nM and 4.53 nM
  TGI: 44 nM and 26.8 nM
HS 578T breast
  GI50: 29.3 nM and 16.5 nM
  TGI: > 45300 nM
HT29 colon
  GI50: 6.18 nM and 4.53 nM
  TGI: > 45300 nM
IGROV1 ovarian
  GI50: 24.8 nM and 4.53 nM
  TGI: > 45300 nM
K-562 leukemia
  GI50: 14.6 nM
  TGI: > 45300 nM
KM12 colon
  GI50: 9.59 nM and 13.5 nM
  TGI: > 45300 nM
LOX IMVI melanoma
  GI50: 2.94 nM and 4.53 nM
  TGI: 11 nM and 4.75 nM
M14 melanoma
  GI50: 3.69 nM and < 4.53 nM
  TGI: 35.8 nM and < 4.53 nM
MALME-3M melanoma
  GI50: 1190 nM and 261 nM
  TGI: 10800 nM
MCF7 breast
  GI50: 8.26 nM and 4.53 nM
  TGI: > 45300 nM
MDA-MB-231 breast
  GI50: 2.28 nM and 4.53 nM
MDA-MB-435
  GI50: 3.74 nM and 4.53 nM
  TGI: 10600 nM
MOLT-4 leukemia
  GI50: 8510 nM
  TGI: > 45300 nM
NCI-H226 lung
  GI50: 28.3 nM and 5.04 nM
  TGI: 9150 nM
NCI-H23 lung
  GI50: 94.3 nM and 96.4 nM
  TGI: > 45300 nM
NCI-H460 lung
  GI50: 13.5 nM and 6.97 nM
  TGI: > 45300 nM
NCI-H522 lung
  GI50: 61.3 nM and 38.8 nM
  TGI: 19200 nM
NCI/ADR-RES ovarian
  GI50: 28.2 nM and 16.1 nM
  TGI: > 45300 nM
OVCAR-3 ovarian
  GI50: 172 nM and 635 nM
  TGI: 16500 nM
OVCAR-4 ovarian
  GI50: 5920 nM
  TGI: > 45300 nM
OVCAR-5 ovarian
  GI50: 8010 nM and 6550 nM
  TGI: > 45300 nM
OVCAR-8 ovarian
  GI50: 17.9 nM and 7.45 nM
  TGI: > 45300 nM
PC-3 prostate
  GI50: 7.85 nM and 4.53 nM
  TGI: > 45300 nM
RPMI-8226 leukemia
  GI50: 17.3 nM and 4.59 nM
  TGI: 21000 nM
RXF 393 renal
  GI50: 4.49 nM and 4.53 nM
  TGI: 16200 nM
SF-268 CNS
  TGI: > 45300 nM
SF-295 CNS
  GI50: 3.71 nM and 4.53 nM
SF-539 CNS
  GI50: 4.13 nM and 4.53 nM
  TGI: 6550 nM
SK-MEL-2 melanoma
  GI50: 7190 nM
  TGI: 33100 nM
SK-MEL-28 melanoma
  GI50: 12.1 nM and 10.2 nM
  TGI: 13300 nM
SK-MEL-5 melanoma
  GI50: 3.65 nM and 4.53 nM
  TGI: 29.1 nM and 15 nM
SK-OV-3 ovarian
  GI50: 6.7 nM
SN12C renal
  GI50: 8.13 nM and 5.18 nM
  TGI: > 45300 nM
SNB-19 CNS
  GI50: 118 nM and 16.4 nM
  TGI: > 45300 nM
SR leukemia
  GI50: 7 nM and 4.53 nM
  TGI: 13400 nM
SW-620 colon
  GI50: 8.92 nM and 4.53 nM
  TGI: 16200 nM
T-47D breast
  GI50: 6.96 nM and 4.53 nM
  TGI: > 45300 nM
TK-10 renal
  GI50: 5120 nM and 5680 nM
  TGI: > 45300 nM
U251 CNS
  GI50: 4.72 nM and 4.53 nM
  TGI: 24700 nM
UACC-257 melanoma
  GI50: 29 nM and 4.53 nM
  TGI: > 45300 nM
UACC-62 melanoma
  GI50: 18.9 nM and 19.6 nM
  TGI: 8920 nM
UO-31 renal
  GI50: 7.47 nM and 4.53 nM
  TGI: 28700 nM

From PubChem BioAssay (NCI)
